Measurements taken from publication PMC3463759 (Clinical cancer research : an official journal of the …, 2012).
“And” between values parts separate entries of the source, which are not always exact repeats. Equal values may be shown once. Read-outs that look alike come from different tables or passages of the source.

Columns and labels:
[1] = Phase I 3+3 dose escalation: DLT, MTD, recommended phase II dose
[2] = test system: recurrent or persistent ovarian cancer; conditions: single agent 100 mg daily; ref Personal communication, Dr. Russell J. Schilder; cited from earlier work
[3] = Pharmacokinetics of dasatinib in plasma; conditions: for AUC: 100 mg, AUC(TAU), TAU = 24 h
[4] = cited from earlier work
[5] = test system: advanced or recurrent epithelial ovarian, peritoneal, or tubal cancer; experiment: Response
solid tumors = conditions: single agent dasatinib; cited from earlier work
[6] = all patients (N=20), all cycles
[7] = cohort 1 (dasatinib 100 mg), n patients
[8] = cohort 2 (dasatinib 120 mg), n patients
[9] = cohort 3 (dasatinib 150 mg), n patients
[10] = dasatinib 100 mg qd + paclitaxel + carboplatin, N=6, all cycles, patients (%)
[11] = dasatinib 120 mg qd + paclitaxel + carboplatin, N=3, all cycles, patients (%)
[12] = paclitaxel and dasatinib, Cycle 2 Day 1, N=18
[13] = with paclitaxel (Cycle 2 Day 1) vs dasatinib alone (Cycle 1 Day 15)

SMILES: Cc1nc(Nc2ncc(C(=O)Nc3c(C)cccc3Cl)s2)cc(N2CCN(CCO)CC2)n1 [dasatinib, N-(2-chloro-6-methyl-phenyl)-2-(6-(4-(2-hydroxyethyl)-piperazin-1-yl)-2-methylpyrimidin-4-ylamino)thiazole-5-carboxamide]
- DLT observed ([1]; dasatinib 120 mg daily, paclitaxel 175 mg/m2, carboplatin AUC 6): no DLTs
- DLT observed ([1]; dasatinib 150 mg daily, paclitaxel 175 mg/m2, carboplatin AUC 6, first cycle): no DLTs
- grade 4 neutropenia at 2 weeks ([1]; first three patients of the dasatinib 150 mg daily cohort): all three patients
- predefined MTD ([1]; in combination with paclitaxel and carboplatin, doses up to 150 mg daily): not reached
- dose modifications secondary to hematologic toxicity (46/95 dose modifications): 48%
- patients reporting fatigue (any grade) (all patients): Ninety
- fatigue grade 3 [6]: 10%
- thrombocytopenia grade 3–4 [6]: 35%
- patients requiring dose modifications (cohort 1 (dasatinib 100 mg)): 100%
- urinary tract infection (cohort 1 (dasatinib 100 mg)): 1
- grade 1 hyponatremia (cohort 1 (dasatinib 100 mg), n): 1
- grade 1 sinus pain (cohort 1 (dasatinib 100 mg), n): 9 Pain toxicity also included the following: (1) grade 2 neuralgia (n=1), grade 1 sinus pain (n=1), and grade 1 throat pain (n=1) in cohort 1; and (2) grade 1 back pain (n=1) and grade 1 extremity pain (n=1) in cohort 2.
- grade 1 throat pain (cohort 1 (dasatinib 100 mg), n): 9 Pain toxicity also included the following: (1) grade 2 neuralgia (n=1), grade 1 sinus pain (n=1), and grade 1 throat pain (n=1) in cohort 1; and (2) grade 1 back pain (n=1) and grade 1 extremity pain (n=1) in cohort 2.
- grade 2 neuralgia (cohort 1 (dasatinib 100 mg), n): 9 Pain toxicity also included the following: (1) grade 2 neuralgia (n=1), grade 1 sinus pain (n=1), and grade 1 throat pain (n=1) in cohort 1; and (2) grade 1 back pain (n=1) and grade 1 extremity pain (n=1) in cohort 2.
- pulmonary toxicity, grade 1 other unspecified etiology (cohort 1 (dasatinib 100 mg), n): 10 Pulmonary toxicity also included the following: (1) grade 1 other unspecified etiology (n=1) in cohort 1; and (2) grade 2 hypoxia (n=1 in cohort 2.
- gastrointestinal toxicity, other unspecified etiologies, grade 1 [7]: 5 Gastrointestinal toxicity included other unspecified etiologies: (1) grade 1 (n=1) and grade 2 (n=1) in cohort 1; (2) grade 1 (n=1) in cohort 2; and (3) grade 1 (n=1) in cohort 3.
- gastrointestinal toxicity, other unspecified etiologies, grade 2 [7]: 5 Gastrointestinal toxicity included other unspecified etiologies: (1) grade 1 (n=1) and grade 2 (n=1) in cohort 1; (2) grade 1 (n=1) in cohort 2; and (3) grade 1 (n=1) in cohort 3.
- grade 1 dehydration [7]: 4 Gastrointestinal toxicity also included the following: (1) grade 1 dehydration (n=1) in cohort 1; (2) grade 1 distension (n=1), grade 1 xerostomia (n=1), grade 1 gastritis (n=1) in cohort 2; and (3) grade 1 xerostomia (n=1) in cohort 3.
- grade 1 joint-function toxicity [7]: 1 Additional toxicities in cohort 1 included musculoskeletal toxicity characterized by grade 1 joint-function toxicity (n=1) and grade 1 muscular complaints (n=1). The grade 3 myalgia is reported under pain.
- grade 1 muscular complaints [7]: 1 Additional toxicities in cohort 1 included musculoskeletal toxicity characterized by grade 1 joint-function toxicity (n=1) and grade 1 muscular complaints (n=1). The grade 3 myalgia is reported under pain.
- cases of grade 1 somnolence/depressed level of consciousness (cohort 2 (dasatinib 120 mg)): 8 Neurologic toxicity included one case of grade 1 somnolence/depressed level of consciousness in cohort 2.
- patients requiring dose modifications (cohort 2 (dasatinib 120 mg)): 67%
- grade 1 back pain (cohort 2 (dasatinib 120 mg), n): 9 Pain toxicity also included the following: (1) grade 2 neuralgia (n=1), grade 1 sinus pain (n=1), and grade 1 throat pain (n=1) in cohort 1; and (2) grade 1 back pain (n=1) and grade 1 extremity pain (n=1) in cohort 2.
- grade 1 extremity pain (cohort 2 (dasatinib 120 mg), n): 9 Pain toxicity also included the following: (1) grade 2 neuralgia (n=1), grade 1 sinus pain (n=1), and grade 1 throat pain (n=1) in cohort 1; and (2) grade 1 back pain (n=1) and grade 1 extremity pain (n=1) in cohort 2.
- grade 1 hypokalemia (cohort 2 (dasatinib 120 mg), n): 1
- grade 1 hypomagnesemia (cohort 2 (dasatinib 120 mg), n): 1
- grade 2 hypoxia (cohort 2 (dasatinib 120 mg), n): 10 Pulmonary toxicity also included the following: (1) grade 1 other unspecified etiology (n=1) in cohort 1; and (2) grade 2 hypoxia (n=1 in cohort 2.
- gastrointestinal toxicity, other unspecified etiologies, grade 1 [8]: 5 Gastrointestinal toxicity included other unspecified etiologies: (1) grade 1 (n=1) and grade 2 (n=1) in cohort 1; (2) grade 1 (n=1) in cohort 2; and (3) grade 1 (n=1) in cohort 3.
- grade 1 distension [8]: 4 Gastrointestinal toxicity also included the following: (1) grade 1 dehydration (n=1) in cohort 1; (2) grade 1 distension (n=1), grade 1 xerostomia (n=1), grade 1 gastritis (n=1) in cohort 2; and (3) grade 1 xerostomia (n=1) in cohort 3.
- grade 1 gastritis [8]: 4 Gastrointestinal toxicity also included the following: (1) grade 1 dehydration (n=1) in cohort 1; (2) grade 1 distension (n=1), grade 1 xerostomia (n=1), grade 1 gastritis (n=1) in cohort 2; and (3) grade 1 xerostomia (n=1) in cohort 3.
- grade 1 xerostomia [8]: 4 Gastrointestinal toxicity also included the following: (1) grade 1 dehydration (n=1) in cohort 1; (2) grade 1 distension (n=1), grade 1 xerostomia (n=1), grade 1 gastritis (n=1) in cohort 2; and (3) grade 1 xerostomia (n=1) in cohort 3.
- patients requiring dose modifications (cohort 3 (dasatinib 150 mg)): 91%
- grade 1 elevated alkaline phosphatase (cohort 3 (dasatinib 150 mg), n): 7 Metabolic toxicities also included the following: grade 1 elevated transaminases (n=1), grade 1 elevated alkaline phosphatase (n=1), and proteinuria (grade 1 (n=1), grade 2 (n=1)) in cohort 3.
- grade 1 elevated transaminases (cohort 3 (dasatinib 150 mg), n): 7 Metabolic toxicities also included the following: grade 1 elevated transaminases (n=1), grade 1 elevated alkaline phosphatase (n=1), and proteinuria (grade 1 (n=1), grade 2 (n=1)) in cohort 3.
- grade 1 hyponatremia (cohort 3 (dasatinib 150 mg), n): 2
- grade 2 hypocalcemia (cohort 3 (dasatinib 150 mg), n): 1
- grade 3 hypercalcemia (cohort 3 (dasatinib 150 mg), n): 1
- hypokalemia grade 1 (cohort 3 (dasatinib 150 mg), n): 3
- hypokalemia grade 4 (cohort 3 (dasatinib 150 mg), n): 1
- hypomagnesemia grade 1 (cohort 3 (dasatinib 150 mg), n): 2
- hypomagnesemia grade 2 (cohort 3 (dasatinib 150 mg), n): 1
- hypophosphatemia grade 2 (cohort 3 (dasatinib 150 mg), n): 2
- hypophosphatemia grade 3 (cohort 3 (dasatinib 150 mg), n): 1
- proteinuria grade 1 (cohort 3 (dasatinib 150 mg), n): 7 Metabolic toxicities also included the following: grade 1 elevated transaminases (n=1), grade 1 elevated alkaline phosphatase (n=1), and proteinuria (grade 1 (n=1), grade 2 (n=1)) in cohort 3.
- proteinuria grade 2 (cohort 3 (dasatinib 150 mg), n): 7 Metabolic toxicities also included the following: grade 1 elevated transaminases (n=1), grade 1 elevated alkaline phosphatase (n=1), and proteinuria (grade 1 (n=1), grade 2 (n=1)) in cohort 3.
- gastrointestinal toxicity, other unspecified etiologies, grade 1 [9]: 5 Gastrointestinal toxicity included other unspecified etiologies: (1) grade 1 (n=1) and grade 2 (n=1) in cohort 1; (2) grade 1 (n=1) in cohort 2; and (3) grade 1 (n=1) in cohort 3.
- grade 1 epitaxis [9]: 1
- grade 1 facial and neck edema [9]: 1
- grade 1 weight loss [9]: 2
- grade 1 xerostomia [9]: 4 Gastrointestinal toxicity also included the following: (1) grade 1 dehydration (n=1) in cohort 1; (2) grade 1 distension (n=1), grade 1 xerostomia (n=1), grade 1 gastritis (n=1) in cohort 2; and (3) grade 1 xerostomia (n=1) in cohort 3.
- grade 3 hypotension [9]: 1
- Allergy, Grade 3 [10]: 1 (17)
- Dermatogic: Alopecia, Grade 2 [10]: 6 (100)
- Dermatogic: Pruritis, Grade 2 [10]: 1 (17)
- Gastrointestinal: Anorexia, Grade 1 [10]: 2 (33)
- Gastrointestinal: Mucositis/Stomatitis, Grade 1 [10]: 2 (33)
- Neurologic: Ocular, Grade 1 [10]: 1 (17)
- Pain: Joint, Grade 2 [10]: 2 (33)
- Pain: Muscle, Grade 2 [10]: 1 (17)
- Thrombocytopenia, Grade 1 [10]: 2 (33)
- Thrombocytopenia, Grade 2 [10]: 1 (17)
- Thrombocytopenia, Grade 3 [10]: 1 (17)
- Thrombocytopenia, Grade 4 [10]: 1 (17)
- fatigue grade 3 [10]: 2 (33)
- Allergy, Grade 3 [11]: 1 (33)
- Dermatogic: Alopecia, Grade 1 [11]: 1 (33)
- Dermatogic: Alopecia, Grade 2 [11]: 2 (67)
- Gastrointestinal: Anorexia, Grade 1 [11]: 3 (100)
- Gastrointestinal: Mucositis/Stomatitis, Grade 1 [11]: 1 (33)
- Neurologic: Ocular, Grade 1 [11]: 1 (33)
- Pain: Joint, Grade 2 [11]: 1 (33)
- Thrombocytopenia, Grade 3 [11]: 1 (33)
- clinically-significant pleural effusions, ascites, or cardiac issues (in vivo): not observed
- other infections (in vivo): Two
- patient deaths during the treatment phase (in vivo): no patient deaths
- reports of infection associated with febrile neutropenia (in vivo): one
- Grade 3 and 4 neutropenia and thrombocytopenia [2]: not observed
- cases of grade 3 anemia [2]: 1
- median PFS [2]: 2.1 months
- responses [2]: no responses
- T-HALF, Mean (SD) ([3]; dasatinib alone, Cycle 1 Day 15, N=14): 6.17 h and 6.17 (2.32) h
- Tmax ([3]; human, plasma, oral): 2 h
- AUC ([3]; human, plasma, oral, Geo Mean (%CV), dasatinib alone, Cycle 1 Day 15, N=14, dose-normalized to 100 mg): 478 ng·h/mL
- AUC ([3]; human, plasma, oral, Geo Mean (%CV), paclitaxel and dasatinib, Cycle 2 Day 1, N=18, dose-normalized to 100 mg): 415 ng·h/mL
- Cmax ([3]; human, plasma, oral, Cmax, Geo Mean (%CV), paclitaxel and dasatinib, Cycle 2 Day 1, N=18, dose-normalized to 100 mg): 78 ng/mL
- inter-individual variability (%CV) for exposure ([3]; in vivo): 40–90%
- T-HALF, Mean (SD) [3, 12]: 5.27 h and 5.27 (1.26) h
- Tmax, Median (min, max) [3, 12]: 2.00 (0.50, 6.00) h
- reduction of geometric mean AUC(0-T) [3, 13]: 11%
- reduction of geometric mean AUC(TAU) [3, 13]: 13%
- incidence of effusions ([4]; 140 mg daily): 9%
- severe pericardial effusions [4]: 1%
- severe pleural effusions [4]: 5%
- grade 3 to 4 hematologic toxicity ([4]; patients with solid tumors): 3–6%
- complete responses (CR) ([5]; 3/20): 15%
- partial responses (PR) ([5]; 5/20): 25%
- PFS6-month actuarial estimate ([5]; 95% confidence interval 69–100%): 86%
- median OS ([5]; in vivo): 16.2 months
- median PFS ([5]; in vivo): 7.8 months
- best clinical response: PRs (solid tumors): 1–5%
- best clinical response: stable disease (solid tumors): 5–23%
